Data reported in patent US20250176599A1, “FLAVOR COMPOSITION AND FOOD AND BEVERAGE” (TAKASAGO INTERNATIONAL CORPORATION, priority 2021, published 2025).

Columns and labels:
[1] = Sensory evaluation of aqueous solution II containing (E)-2-octenal 10 ppb: off-flavor intensity and masking component intensity; conditions: (E)-2-octenal 10 ppb, average score 0-4
Procedure: (§1) In ion-exchanged water, each degradation component was added to achieve the concentrations listed in Table 1, and aqueous solutions I to VI containing these degradation components were prepared.
(§2) For the aforementioned aqueous solutions containing degradation components, nootkatone was added at the concentrations listed in Table 2 to confirm the intensity of the off-flavor (masking effect) in each sample and the intensity of the masking component itself (the impact on the flavor of the food and/or beverage itself).
(§3) The test was conducted as follows. Eight experienced panelists were selected to conduct a sensory evaluation. The intensity of the off-flavor of the aqueous solution containing the degradation components derived from unsaturated fatty acids, without added masking components, was set as “Evaluation: 4.” The ion-exchanged water free of any degradation components was set as “Evaluation: 0.” The intensity of the off-flavor (masking effect) of each sample was then relatively evaluated according to the following evaluation criteria.
(§4) • Off-flavor is strongly sensed: 4 points • Off-flavor is sensed: 3 points • Off-flavor is slightly sensed: 2 points • Off-flavor is barely sensed: 1 point • Off-flavor is not sensed at all: 0 points
(§5) Also, the intensity of the masking components (impact on the flavor of the food and/or beverage itself) was absolutely evaluated according to the following evaluation criteria.
(§6) • Masking component is strongly sensed: 4 points • Masking component is sensed: 3 points • Masking component is slightly sensed: 2 points • Masking component is barely sensed: 1 point • Masking component is not sensed at all: 0 points

[2] = Sensory evaluation of aqueous solution V containing 1-octen-3-ol 10 ppb: off-flavor intensity and masking component intensity; conditions: 1-octen-3-ol 10 ppb, average score 0-4
Procedure: as §1, §2, §3, §4, §5, §6

[3] = Sensory evaluation of aqueous solution IV containing 1,5-octadien-3-one 100 ppt: off-flavor intensity and masking component intensity; conditions: aqueous solution IV, 1,5-octadien-3-one 100 ppt, average score 0-4
Procedure: as §1, §2, §3, §4, §5, §6

[4] = Overall conclusion of the sensory evaluation across aqueous solutions I to VI
Procedure: as §1, §2, §3, §4, §5, §6

[5] = Sensory evaluation of aqueous solution I containing (E)-2-nonenal 1 ppb: off-flavor intensity and masking component intensity; conditions: (E)-2-nonenal 1 ppb, average score 0-4
Procedure: as §1, §2, §3, §4, §5, §6

[6] = Sensory evaluation of aqueous solution VI containing 1,5-octadien-3-ol 10 ppb: off-flavor intensity and masking component intensity; conditions: aqueous solution VI, 1,5-octadien-3-ol 10 ppb, average score 0-4
Procedure: as §1, §2, §3, §4, §5, §6

[7] = Sensory evaluation of aqueous solution III containing 1-octen-3-one 1 ppb: off-flavor intensity and masking component intensity; conditions: 1-octen-3-one 1 ppb, average score 0-4
Procedure: as §1, §2, §3, §4, §5, §6

## CCCC(=O)C(C)=O [2,3-Hexanedione, 2,3-hexanedione]
[1]; 1 ppb added
  Off-Flavor Intensity: 3.0 points
[1]; 1 ppm added
  Off-Flavor Intensity: 2.0 points
[1]; 5 ppb added
  Off-Flavor Intensity: 3.0 points
[1]; 5 ppm added
  Off-Flavor Intensity: 1.4 points
[1]; 10 ppb added
  Off-Flavor Intensity: 2.6 points
[1]; 10 ppm added
  Off-Flavor Intensity: 1.0 points
[1]; 50 ppb added
  Off-Flavor Intensity: 2.5 points
[1]; 100 ppb added
  Off-Flavor Intensity: 2.0 points
[1]; 500 ppb added
  Off-Flavor Intensity: 2.0 points
[2]; 1 ppb added
  Off-Flavor Intensity: 3.1 points
[2]; 1 ppm added
  Off-Flavor Intensity: 1.5 points
[2]; 5 ppb added
  Off-Flavor Intensity: 2.9 points
[2]; 5 ppm added
  Off-Flavor Intensity: 0.9 points
[2]; 10 ppb added
  Off-Flavor Intensity: 2.5 points
[2]; 10 ppm added
  Off-Flavor Intensity: 0.4 points
[2]; 50 ppb added
  Off-Flavor Intensity: 2.3 points
[2]; 100 ppb added
  Off-Flavor Intensity: 2.0 points
[2]; 500 ppb added
  Off-Flavor Intensity: 1.8 points
[3]; 1 ppb added
  Off-Flavor Intensity: 3.6 points
[3]; 1 ppm added
  Off-Flavor Intensity: 2.1 points
[3]; 5 ppb added
  Off-Flavor Intensity: 3.5 points
[3]; 5 ppm added
  Off-Flavor Intensity: 1.5 points
[3]; 10 ppb added
  Off-Flavor Intensity: 3.4 points
[3]; 10 ppm added
  Off-Flavor Intensity: 0.8 points
[3]; 50 ppb added
  Off-Flavor Intensity: 2.9 points
[3]; 100 ppb added
  Off-Flavor Intensity: 2.9 points
[3]; 500 ppb added
  Off-Flavor Intensity: 2.6 points
[4]
  concentration that masks the off-flavor and does not affect the flavor of the food and/or beverage itself, lower limit: ≥ 1 ppb
  concentration that masks the off-flavor and does not affect the flavor of the food and/or beverage itself, upper limit: ≤ 1 ppm
[5]; 1 ppb added
  Off-Flavor Intensity: 3.4 points
[5]; 1 ppm added
  Off-Flavor Intensity: 1.6 points
[5]; 5 ppb added
  Off-Flavor Intensity: 3.4 points
[5]; 5 ppm added
  Off-Flavor Intensity: 1.1 points
[5]; 10 ppb added
  Off-Flavor Intensity: 3.3 points
[5]; 10 ppm added
  Off-Flavor Intensity: 0.9 points
[5]; 50 ppb added
  Off-Flavor Intensity: 2.6 points
[5]; 100 ppb added
  Off-Flavor Intensity: 2.4 points
[5]; 500 ppb added
  Off-Flavor Intensity: 2.0 points
[6]; 1 ppb added
  Off-Flavor Intensity: 3.4 points
[6]; 1 ppm added
  Off-Flavor Intensity: 1.6 points
[6]; 5 ppb added
  Off-Flavor Intensity: 3.4 points
[6]; 5 ppm added
  Off-Flavor Intensity: 1.0 points
[6]; 10 ppb added
  Off-Flavor Intensity: 3.0 points
[6]; 10 ppm added
  Off-Flavor Intensity: 0.5 points
[6]; 50 ppb added
  Off-Flavor Intensity: 2.8 points
[6]; 100 ppb added
  Off-Flavor Intensity: 2.6 points
[6]; 500 ppb added
  Off-Flavor Intensity: 2.1 points
[7]; 1 ppb added
  Off-Flavor Intensity: 4.0 points
[7]; 1 ppm added
  Off-Flavor Intensity: 2.3 points
[7]; 5 ppb added
  Off-Flavor Intensity: 3.9 points
[7]; 5 ppm added
  Off-Flavor Intensity: 1.8 points
[7]; 10 ppb added
  Off-Flavor Intensity: 3.6 points
[7]; 10 ppm added
  Off-Flavor Intensity: 1.5 points
[7]; 50 ppb added
  Off-Flavor Intensity: 3.4 points
[7]; 100 ppb added
  Off-Flavor Intensity: 3.0 points
[7]; 500 ppb added
  Off-Flavor Intensity: 2.5 points
